# Key:
# HCT-116 = experiment: Antiproliferative activity against human HCT-116 cells overexpressing MDM2 assessed as cell growth inhibition incubated for 72 hrs by CCK-8 assay; format: functional, cell-based; conditions: HCT-116, 72 h
# SH-SY5Y = experiment: Antiproliferative activity against human SH-SY5Y cells overexpressing MDMX assessed as cell growth inhibition incubated for 72 hrs by CCK-8 assay; format: functional, cell-based
# Protein Mdm4 = target: T1, Protein Mdm4 (Homo sapiens, UniProt O15151); experiment: Binding affinity to MDMX (1 to 118 residues) (unknown origin) assessed as inhibition constant incubated for 1 hr measured by fluorescence polarization assay
# T1 sequence (O15151 whole entry): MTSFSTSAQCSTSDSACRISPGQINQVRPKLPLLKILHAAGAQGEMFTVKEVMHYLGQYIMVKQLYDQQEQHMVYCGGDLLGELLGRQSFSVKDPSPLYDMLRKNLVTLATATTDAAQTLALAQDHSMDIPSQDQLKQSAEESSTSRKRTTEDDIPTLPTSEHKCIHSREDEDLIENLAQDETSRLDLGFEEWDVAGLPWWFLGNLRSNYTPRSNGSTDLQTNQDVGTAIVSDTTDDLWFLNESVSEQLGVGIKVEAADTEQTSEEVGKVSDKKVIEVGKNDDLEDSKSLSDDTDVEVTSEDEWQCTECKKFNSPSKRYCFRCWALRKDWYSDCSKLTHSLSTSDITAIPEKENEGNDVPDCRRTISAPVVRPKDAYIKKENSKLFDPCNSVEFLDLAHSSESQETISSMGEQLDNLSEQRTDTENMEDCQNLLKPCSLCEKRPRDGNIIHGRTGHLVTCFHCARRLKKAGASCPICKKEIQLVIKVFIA
# [1] = target: E3 ubiquitin-protein ligase Mdm2 (Homo sapiens, UniProt Q00987); experiment: Binding affinity to MDM2 (1 to 118 residues) (unknown origin) assessed as inhibition constant incubated for 1 hr measured by fluorescence polarization assay
# Sequence of E3 ubiquitin-protein ligase Mdm2 (Q00987 whole entry, the tested form may be a part): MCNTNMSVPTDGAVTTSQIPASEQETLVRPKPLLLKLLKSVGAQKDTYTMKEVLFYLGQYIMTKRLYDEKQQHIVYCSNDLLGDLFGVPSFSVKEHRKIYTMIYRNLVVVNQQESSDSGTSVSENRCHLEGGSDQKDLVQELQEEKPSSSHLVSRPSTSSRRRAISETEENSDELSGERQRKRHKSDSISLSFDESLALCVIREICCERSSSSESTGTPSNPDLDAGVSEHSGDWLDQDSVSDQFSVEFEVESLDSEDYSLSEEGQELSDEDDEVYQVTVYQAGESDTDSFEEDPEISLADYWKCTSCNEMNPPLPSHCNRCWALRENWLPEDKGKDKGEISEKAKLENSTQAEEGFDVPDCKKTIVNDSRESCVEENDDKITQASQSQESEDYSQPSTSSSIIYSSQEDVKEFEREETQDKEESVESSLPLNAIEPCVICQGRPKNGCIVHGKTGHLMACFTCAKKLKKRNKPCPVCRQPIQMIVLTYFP
# SJSA-1 = experiment: Antiproliferative activity against human SJSA-1 cells overexpressing MDM2 assessed as cell growth inhibition incubated for 72 hrs by CCK-8 assay; format: functional, cell-based; conditions: SJSA-1, 72 h
# [2] = Antiproliferative activity against human HCT116-p53-null cells overexpressing MDMX assessed as cell growth inhibition incubated for 72 hrs by CCK-8 assay; format: functional, cell-based
Structure (SMILES),IC50 (HCT-116),IC50 (SH-SY5Y),Ki (Protein Mdm4),Ki [1],IC50 (SJSA-1),IC50 [2]
O=C(O)c1ccc(C(=O)N(c2ccc(Cl)cc2)C(C(=O)c2ccc(Cl)cc2)c2ccc(F)cc2Cl)cc1 (configuration not stated),2.26 µM,1.03 µM,4.22 µM,0.32 µM,1.95 µM,16.8 µM
CC(C)(C)OC(=O)N1CCN(C(=O)CCC(=O)N(c2ccc(Cl)cc2)C(C(=O)c2ccc(Cl)cc2)c2ccc(F)cc2Cl)CC1 (configuration not stated),9.98 µM,11.8 µM,36.8 µM,0.73 µM,9.47 µM,17.4 µM
CCOc1cc(/C=C2\C(=O)N(c3ccccc3)N=C2C)cc(Cl)c1OCC(=O)OC,,12.9 µM,0.78 µM,,,
COc1ccc(S(=O)(=O)N(c2ccc(Cl)cc2)C(C(=O)c2ccc(Cl)cc2)c2ccc(F)cc2Cl)cc1 (configuration not stated),12 µM,9.64 µM,15.6 µM,0.65 µM,10.4 µM,30.5 µM
COC(=O)c1ccc(C(=O)N(c2ccc(Cl)cc2)C(C(=O)c2ccc(Cl)cc2)c2ccc(F)cc2Cl)cc1 (configuration not stated),8.86 µM,7.33 µM,12.9 µM,1.06 µM,10.2 µM,20.8 µM
CCN1CCN(C(=O)CCC(=O)N(c2ccc(Cl)cc2)C(C(=O)c2ccc(Cl)cc2)c2ccc(F)cc2Cl)CC1 (configuration not stated),6.24 µM,5.82 µM,9.37 µM,0.69 µM,5.93 µM,20.9 µM

# Reference: ChEMBL document CHEMBL5360555, “Structure-based discovery of novel α-aminoketone derivatives as dual p53-MDM2/MDMX inhibitors for the treatment of cancer” (Eur J Med Chem, 2023)
